Patent US20060078890A1, “Methods for identifying parkinson's disease therapeutics” (priority 2004, published 2006)
Entries after “also recorded” stand apart in the source; their conditions may differ. Ends that are not written are not given here.

Tests used:
[1] = test system: dopaminergic neurons in the substantia nigra; test: Progressive 6-OHDA lesioned rats, TH immunohistochemistry of striatum and substantia nigra; type: in vivo, rat; conditions: unilateral intrastriatal 6-OHDA, total dose 22.5 μg; up to 28 days
Method: Female Sprague Dawley rats (200-250 g, Charles River, Wilmington, Mass.) receive unilateral intrastriatal stereotaxic injections of 6-OHDA (Sigma, St. Louis, USA) using a 10 μl Hamilton syringe. Intramuscular injections of Acepromazine (3.3 mg/kg, PromAce, Fort Dodge, Iowa) and atropine sulfate (0.2 mg/kg, Phoenix Pharmaceuticals, St. Joseph, Mo.) is given 10 minutes before animals will be anesthetized with ketamine/xylazine (60 mg/kg and 3 mg/kg respectively, i.m.). A concentration of 3.0 μg/μl free base 6-OHDA dissolved in 0.2% ascorbic acid/saline (Sigma) is injected into 3 locations (2.5 μl/site, total dose 22.5 μg) in the right striatum at the following coordinates (calculated from bregma): site 1, AP+1.3, L−2.8, DV−4.5, IB−2.3; site 2, AP+0.2, L−3.0, DV−5.0, IB−2.3; site 3, AP−0.6, L−4.0, DV−5.5, IB−2.3 mm.

[2] = test system: PC12-αSyn cells; test: MPP+ toxicity in α-synuclein overexpressing PC12 cells, cell death by LDH release; type: cell-based; conditions: for LDH release (cell death) induced by MPP+ toxicity; neuroprotective effect: PC12-αSyn cells pretreated for two hours prior to 1 mM MPP+ for 24 hours, increasing concentrations
Method: A PC12 cell line was transfected to express wild type human α-synuclein using the Tet-Off system (Clontech Laboratories, Palo Alto, Calif.). α-Synuclein expression was suppressed using 1 μg/mL doxycycline (Clontech) in culture media before expression is required. α-Synuclein expressing PC12 cells (PC12-αSyn) were grown in Dulbecco's modified Eagle's medium (DMEM) (Invitrogen, Calsbad, Calif.) supplemented with 10% heat-inactivated horse serum, 5% heat-inactivated fetal calf serum (Hyclone, Logan, Utah), 4 mM L-glutamine, streptomycin, and penicillin G (Fisher, Pittsburgh, Pa.). Cells were maintained at 37° C., in 5% CO2 humid atmosphere.
The effects of various neuroprotective agents were examined in the PC12-αSyn cell line. To determine MPP^+ neurotoxicity in α-synuclein- and naïve PC12 cells, cell death was measured by LDH release assays.
(§1) Cell death will be assessed by quantifying intra- and extracellular lactate dehydrogenase (LDH). The ratio between the amount of LDH released and the amount remaining in the cells produces a measure of cell death. [formula]
(§2) A sample of the medium will be the extracellular LDH sample. Cells were washed with PBS and extracted in cell lysis buffer (50 mM Tris pH 8.0, 150 mM NaCl, 5 mM EDTA, 1% Triton X-100, 10 μg/ml Aprotinin, 25 μg /ml Leupeptin, 10 μg/ml Pepstatin, 1 mM PMSF; all protease inhibitors purchased from Sigma Chemicals, St. Louis, Mo.). The cell homogenate were centrifuged at 4° C. for 3 minutes at 14,000 rpm. The supernatant were taken for intracellular LDH sample. LDH activity will be quantified using an LDH assay kit (Roche, Indianapolis, Ind.).

[3] = test system: TH-positive/GIRK2-positive dopaminergic neurons of primary VM culture; test: MPP+ toxicity in primary ventral mesencephalic (VM) culture, stereological count of TH-positive/GIRK2-positive neurons; type: cell-based, rat; conditions: for protective effect against MPP+ toxicity on GIRK2-positive/TH-positive neurons: pretreated 2 hours prior to 10 μM MPP+
Method: VMDA cultures were obtained from E15 Sprague-Dawley rat (Charles River, Mass.) ventral mesencephalon (VM). Tissue was mechanically dissociated with a pasteur pipette. The cells were resuspended in DMEM containing heat-inhibited horse serum (10%), glucose (6.0 mg/ml), penicillin, streptomycin, and 2 mM glutamine (Gibco). Cell suspensions containing 4×10^5 cells were plated on a coverslip in a 24-well plate, precoated with a 1:500 diluted solution of polyornithine and fibronectin in 50 mM sodium borate (pH 7.4) overnight.
These cultures contained a mixed cell population having approximately 40% of TH-positive neurons at 5 days in vitro (DIV) with both A9- and A10-like dopaminergic neurons (FIG. 4A). […] The cultures were treated with MPP^+ at day 5 for 48 hours using concentrations ranging from 0.1 to 10 μM. Cells were fixed with paraformaldehyde for immunostaining of TH and GIRK2 48 hours after MPP^+ treatment.
The cultures were pretreated with the polypeptide factors 2 hours prior to 10 μM MPP^+ treatment.
Routine indirect immunofluorescence was performed on 4% paraformaldehyde fixed VM culture. The fixed cells were incubated in a blocking solution consisting of 10% normal donkey serum (Jackson Immuno Research Laboratories Inc, West Grove, Pa.) and 0.1% Triton X-100 (Sigma, St. Louis, Mo.) in 0.1M phosphate buffered saline (PBS) for 1 hour at room temperature before transferring to the primary antibody solution. The primary antibodies were diluted in blocking solution and the cells were incubated overnight at 4° C. The primary antibodies used were raised against tyrosine hydroxylase (sheep anti-TH, 1:300, Pel-Freez Biologicals, Rogers, Ak.) and GIRK2 (rabbit; 1:80, Alomone Laboratories, Jerusalem, Israel). The cells were rinsed three times in 0.1 M PBS for five minutes each before the application of the secondary antibody solution for one hour at room temperature. The secondary antibodies were diluted in 10% normal donkey serum in 0.1M PBS. The secondary antibodies were conjugated to spectrally distinct fluorescent dyes to facilitate color separation (Alexa Fluor 488 conjugated donkey anti-sheep and Alexa Fluor 594 conjugated donkey anti-rabbit, Molecular Probes, Eugene, Oreg.). After rinsing in triplicate for ten minutes each in 0.1 M PBS, the cells were counterstained with 0.0005% Hoechst 33342 (Molecular Probes) in 0.1M Tris buffered saline. The coverslips containing the fixed cells were then rinsed in 0.1M PBS followed by distilled water and mounted onto slides using an aqueous mountant (Gel/Mount, Biømeda Corp., Calif.). Control coverslips immunostained without primary antibody were used to assess specificity of the technique.
Design based stereology was performed by counters blinded to experimental groups on the stained coverslips using an integrated Axioskop 2 microscope (Carl Zeiss, Thornwood, N.Y.) and Stereoinvestigator image capture equipment and software (MicroBrightField, Williston, Vt.). A contour was drawn around each coverslip to identify the area of interest. A physical disector probe was utilized and counting frames were placed in a systematically random manner at approximately 125 sites per coverslip. The resultant coefficient of error for the stereological counts was used to assess precision (p<0.05).

[4] = test system: DAN cells; test: MPP+ toxicity in human dopaminergic neuron precursor (DAN) cells, LDH release; type: cell-based; conditions: for LDH release (cell death) in MPP+ treated DAN cells: pretreated for two hours prior to MPP+ (1 mM)
Source text: DAN cells, which have been used to study neurodegeneration, can be used in the methods of this invention; they express multiple genes of Tables 4 and/or 5, and the expression of these genes following contact with a candidate compound can be measured. […] DAN cells are sensitive to the neurotoxin MPP^+.
as §1, §2

Compound: NCCc1cc(O)c(O)cc1O [6-OHDA, 6-hydroxydopamine]
- loss of dopaminergic fibers in the striatum and neuronal cell bodies in the substantia nigra [1]: progressive degeneration of dopaminergic neuronal cell bodies

Compound: COC(=O)C[C@H](NC(=O)OC(C)(C)C)C(=O)CF [BAF, reference compound]
- MPP+ susceptibility (LDH release) after pretreatment with neuroprotective agent ([2]; PC12-αSyn cells pretreated): significantly decreased

Compound: C[n+]1ccc(-c2ccccc2)cc1 [MPP^+, 1-methyl-4-phenylpyridinium, reference compound]
- LDH release in PC12-αSyn cells compared with naive PC12 cells ([2]; intermediate concentration (2.5 mM) of MPP+): significantly higher LDH release
- vulnerability of TH-positive/GIRK2-positive versus TH-positive/GIRK2-negative cells ([3]; primary VM culture, MPP+ 0.1 to 10 μM at day 5 for 48 hours): more vulnerable
- dose of MPP+ giving maximal toxic insult (LDH release) ([4]; DAN cells): 2.5 mM

Compound: Fibroblast growth factor 1 [FGF1]
- LDH release (cell death) induced by MPP+ toxicity; protection by FGF1 ([2]; PC12-αSyn cells, FIG. 2D): significantly reduced; also recorded: able to protect PC12-αSyn cells from MPP^+ in a dose-dependent manner

Compound: NT-3: neurotrophic factor known to have elevated expression in A10 dopaminergic neurons
- LDH release (cell death) induced by MPP+ toxicity; neuroprotective effect [2]: Significant dose-dependent reductions in LDH release; also recorded: able to protect PC12-α-Syn cells from MPP^+ neurotoxicity in a dose-dependent manner
- protective effect against MPP+ toxicity on GIRK2-positive/TH-positive neurons ([3]; primary VM culture): significant protective effect
- survival of TH and TH/GIRK2 double-labeled neurons against MPP+ toxicity ([3]; primary VMDA culture, NT3 at 17 ng/ml, MPP+ 10 μM): protects the cells against MPP^+ toxicity
- LDH release (cell death) in MPP+ treated DAN cells [4]: significant dose-dependent reduction in LDH release
- LDH release (cell death) in MPP+ treated DAN cells ([4]; listed as NT3): protective effect

Compound: Vasoactive intestinal peptide (HSDAVFTDNYTRLRKQMAVKKYLNSILN; ends and bridges not checked; UniProt P01282 125-152, looked up) [VIP, neuropeptide elevated in A10 dopaminergic neurons]
- LDH release (cell death) induced by MPP+ toxicity; neuroprotective effect [2]: Significant dose-dependent reductions in LDH release; also recorded: dose-dependent neuroprotective effects
- neuroprotective effect in primary VM culture (TH and GIRK2 immunostaining) ([3]; 48 hours after 10 μM MPP+, 10^−6 M VIP): neuroprotective effect
- protective effect against MPP+ toxicity on GIRK2-positive/TH-positive neurons ([3]; primary VM culture): significant protective effect

Compound: calcitonin/calcitonin gene-related peptide alpha [CGRP]
- LDH release (cell death) induced by MPP+ toxicity; neuroprotective effect [2]: Significant dose-dependent reductions in LDH release; also recorded: dose-dependent neuroprotective effects

Compound: cholecysokinin-8 (DYMGWMDF; ends and bridges not checked; UniProt P06307 96-103, looked up) [CCK-8, neuropeptide elevated in A10 dopaminergic neurons]
- LDH release (cell death) induced by MPP+ toxicity; neuroprotective effect [2]: Significant dose-dependent reductions in LDH release; also recorded: dose-dependent neuroprotective effects

Compound: gastrin releasing peptide (VPLPAGGGTVLTKMYPRGNHWAVGHLM; ends and bridges not checked; UniProt P07492 24-50, looked up) [GRP, neuropeptide elevated in A10 dopaminergic neurons]
- LDH release (cell death) induced by MPP+ toxicity; neuroprotective effect [2]: Significant dose-dependent reductions in LDH release; also recorded: dose-dependent neuroprotective effects
- protective effect against MPP+ toxicity on GIRK2-positive/TH-positive neurons ([3]; primary VM culture): significant protective effect
